Measured values published in patent US20210045385A1, “PYRIDAZINONE-SUBSTITUTED KETOXIMES AS HERBICIDES” (FMC Corporation, priority 2018, published 2021).

Columns and labels:
Assay type in all cases: in vivo
rice (Oryza sativa) = test: Test B flooded paddy test, visual plant response rating; details: 250 g ai/ha, Flood, applied to paddy water, 2-leaf stage, evaluated after 13 to 15 days
Procedure, shortened: (§1)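 Greenhouse paddy conditions applied: two-leaf plants, a 3 cm flood above the soil surface maintained throughout, and compound added to the water rather than the foliage. Plants were judged visually against controls at 13 to 15 days.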

[1] = system: sedge, umbrella (small-flower umbrella sedge, Cyperus difformis); test: as above; details: 250 g ai/ha, Flood, applied to paddy water, 2-leaf stage, evaluated after 13 to 15 days
Procedure, shortened: as §1

[2] = system: ducksalad (Heteranhera limosa); test: as above; details: 250 g ai/ha, Flood, applied to paddy water, 2-leaf stage, evaluated after 13 to 15 days
Procedure, shortened: as §1

[3] = system: barnyardgrass (Echinochloa crus-galli); test: as above; details: 250 g ai/ha, Flood, applied to paddy water, 2-leaf stage, evaluated after 13 to 15 days
Procedure, shortened: as §1

[4] = system: Italian ryegrass (Lolium multiflorum); test: Test A postemergence, visual plant response rating; details: for Ryegrass, Italian plant response rating (0 to 100 scale): 500 g ai/ha, postemergence, 0 is no effect, 100 is complete control; for Ryegrass, Italian plant response rating: Postemergence, 125 g ai/ha, 0 to 100 scale (0 no effect, 100 complete control)
Procedure, shortened: (§2)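 Compared with untreated controls, treated plants received a visual injury score on a 0–100 scale around 10 days after application. The compound, in a non-phytotoxic solvent with surfactant, was given as a preemergence soil spray or postemergence at the one- to two-leaf stage.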

[5] = system: galium (catchweed bedstraw, Galium aparine); test: Test A postemergence, visual plant response rating; details: for Galium plant response rating (0 to 100 scale): 500 g ai/ha, postemergence, 0 is no effect, 100 is complete control; for Galium plant response rating: Postemergence, 125 g ai/ha, 0 to 100 scale (0 no effect, 100 complete control)
Procedure, shortened: as §2

corn (Zea mays) = test: Test A postemergence, visual plant response rating; details: for Corn plant response rating (0 to 100 scale): 500 g ai/ha, postemergence, 0 is no effect, 100 is complete control; for Corn plant response rating: Postemergence, 125 g ai/ha, 0 to 100 scale (0 no effect, 100 complete control)
Procedure, shortened: as §2

[6] = system: foxtail, giant (giant foxtail, Setaria faberii); test: Test A postemergence, visual plant response rating; details: for Foxtail, Giant plant response rating (0 to 100 scale): 500 g ai/ha, postemergence, 0 is no effect, 100 is complete control; for Foxtail, Giant plant response rating: Postemergence, 125 g ai/ha, 0 to 100 scale (0 no effect, 100 complete control)
Procedure, shortened: as §2

[7] = system: blackgrass (Alopecurus myosuroides); test: Test A postemergence, visual plant response rating; details: for Blackgrass plant response rating (0 to 100 scale): 500 g ai/ha, postemergence, 0 is no effect, 100 is complete control; for Blackgrass plant response rating: Postemergence, 125 g ai/ha, 0 to 100 scale (0 no effect, 100 complete control)
Procedure, shortened: as §2

kochia (Kochia scoparia) [8] = test: Test A postemergence, visual plant response rating; details: for Kochia plant response rating (0 to 100 scale): 500 g ai/ha, postemergence, 0 is no effect, 100 is complete control; for Kochia plant response rating: Postemergence, 125 g ai/ha, 0 to 100 scale (0 no effect, 100 complete control)
Procedure, shortened: as §2

[9] = system: pigweed (Amaranthus retroflexus); test: Test A postemergence, visual plant response rating; details: for Pigweed plant response rating (0 to 100 scale): 500 g ai/ha, postemergence, 0 is no effect, 100 is complete control; for Pigweed plant response rating: Postemergence, 125 g ai/ha, 0 to 100 scale (0 no effect, 100 complete control)
Procedure, shortened: as §2

[10] = system: wheat (Triticum aestivum); test: Test A postemergence, visual plant response rating; details: for Wheat plant response rating (0 to 100 scale): 500 g ai/ha, postemergence, 0 is no effect, 100 is complete control; for Wheat plant response rating: Postemergence, 125 g ai/ha, 0 to 100 scale (0 no effect, 100 complete control)
Procedure, shortened: as §2

[11] = system: barnyardgrass (Echinochloa crus-galli); test: Test A postemergence, visual plant response rating; details: for Barnyardgrass plant response rating (0 to 100 scale): 500 g ai/ha, postemergence, 0 is no effect, 100 is complete control; for Barnyardgrass plant response rating: Postemergence, 125 g ai/ha, 0 to 100 scale (0 no effect, 100 complete control)
Procedure, shortened: as §2

[12] = system: ragweed (common ragweed, Ambrosia elatior); test: Test A postemergence, visual plant response rating; details: for Ragweed plant response rating (0 to 100 scale): 500 g ai/ha, postemergence, 0 is no effect, 100 is complete control; for Ragweed plant response rating: Postemergence, 125 g ai/ha, 0 to 100 scale (0 no effect, 100 complete control)
Procedure, shortened: as §2

[13] = system: Italian ryegrass (Lolium multiflorum); test: Test A preemergence, visual plant response rating; details: for Ryegrass, Italian plant response rating: 125 g ai/ha, preemergence, 0 to 100 scale, 0 no effect, 100 complete control; for Ryegrass, Italian plant response rating (0 to 100 scale): 500 g ai/ha Preemergence, approx. 10 days
Procedure, shortened: as §2

[14] = system: foxtail, giant (giant foxtail, Setaria faberii); test: Test A preemergence, visual plant response rating; details: for Foxtail, Giant plant response rating: 125 g ai/ha, preemergence, 0 to 100 scale, 0 no effect, 100 complete control; for Foxtail, Giant plant response rating (0 to 100 scale): 500 g ai/ha Preemergence, approx. 10 days
Procedure, shortened: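 Formulated in a non-phytotoxic solvent mixture including surfactant, each test chemical was sprayed onto the soil surface after sowing, or onto seedlings 2 to 10 cm high. Roughly 10 days later, plants were compared with untreated controls and rated for injury from 0 (no effect) to 100 (complete control).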

kochia (Kochia scoparia) [15] = test: Test A preemergence, visual plant response rating; details: for Kochia plant response rating: 125 g ai/ha, preemergence, 0 to 100 scale, 0 no effect, 100 complete control; for Kochia plant response rating (0 to 100 scale): 500 g ai/ha Preemergence, approx. 10 days
Procedure, shortened: as §2

[16] = system: pigweed (Amaranthus retroflexus); test: Test A preemergence, visual plant response rating; details: for Pigweed plant response rating: 125 g ai/ha, preemergence, 0 to 100 scale, 0 no effect, 100 complete control; for Pigweed plant response rating (0 to 100 scale): 500 g ai/ha Preemergence, approx. 10 days
Procedure, shortened: as §2

[17] = system: barnyardgrass (Echinochloa crus-galli); test: Test A preemergence, visual plant response rating; details: for Barnyardgrass plant response rating: 125 g ai/ha, preemergence, 0 to 100 scale, 0 no effect, 100 complete control; for Barnyardgrass plant response rating (0 to 100 scale): 500 g ai/ha Preemergence, approx. 10 days
Procedure, shortened: as §2

[18] = system: ragweed (common ragweed, Ambrosia elatior); test: Test A preemergence, visual plant response rating; details: for Ragweed plant response rating: 125 g ai/ha, preemergence, 0 to 100 scale, 0 no effect, 100 complete control; for Ragweed plant response rating (0 to 100 scale): 500 g ai/ha Preemergence, approx. 10 days
Procedure, shortened: as §2

| SMILES | Plant response rating, Rice (0 to 100 scale, 0 is no effect, 100 is complete control) (rice (Oryza sativa)) | Plant response rating, Sedge, Umbrella (0 to 100 scale, 0 is no effect, 100 is complete control) [1] | Plant response rating, Ducksalad (0 to 100 scale, 0 is no effect, 100 is complete control) [2] | Plant response rating, Barnyardgrass (0 to 100 scale, 0 is no effect, 100 is complete control) [3] | Ryegrass, Italian plant response rating (0 to 100 scale) [4] | Ryegrass, Italian plant response rating [4] | Galium plant response rating (0 to 100 scale) [5] | Galium plant response rating [5] | Corn plant response rating (0 to 100 scale) (corn (Zea mays)) | Corn plant response rating (corn (Zea mays)) | Foxtail, Giant plant response rating (0 to 100 scale) [6] | Foxtail, Giant plant response rating [6] | Blackgrass plant response rating (0 to 100 scale) [7] | Blackgrass plant response rating [7] | Kochia plant response rating (0 to 100 scale) (kochia (Kochia scoparia) [8]) | Kochia plant response rating (kochia (Kochia scoparia) [8]) | Pigweed plant response rating (0 to 100 scale) [9] | Pigweed plant response rating [9] | Wheat plant response rating (0 to 100 scale) [10] | Wheat plant response rating [10] | other results |
| --- | --- | --- | --- | --- | --- | --- | --- | --- | --- | --- | --- | --- | --- | --- | --- | --- | --- | --- | --- | --- | --- |
| CO/N=C(\c1cccc(C#N)c1)c1c(O)c(C)nn(C)c1=O [Compound 74] | 15 | 10 | 25 | 0 | 20 | 10 | 50 | 10 | 0 | 0 | 0 | 0 | 20 | 0 | 30 | 0 | 30 | 20 | 0 | 0 | Barnyardgrass plant response rating (0 to 100 scale) [11]: 0; Barnyardgrass plant response rating [11]: 0; Ragweed plant response rating (0 to 100 scale) [12]: 20; Ragweed plant response rating [12]: 0; Ryegrass, Italian plant response rating [13]: 0; Ryegrass, Italian plant response rating (0 to 100 scale) [13]: 0; Foxtail, Giant plant response rating [14]: 0; Foxtail, Giant plant response rating (0 to 100 scale) [14]: 0; Kochia plant response rating (kochia (Kochia scoparia) [15]): 0; Kochia plant response rating (0 to 100 scale) (kochia (Kochia scoparia) [15]): 0; Pigweed plant response rating [16]: 0; Pigweed plant response rating (0 to 100 scale) [16]: 0; Barnyardgrass plant response rating [17]: 0; Barnyardgrass plant response rating (0 to 100 scale) [17]: 0; Ragweed plant response rating [18]: 0; Ragweed plant response rating (0 to 100 scale) [18]: 0 |
| CO/N=C(/c1c(O)c(C)nn(C)c1=O)c1ccc(F)c2ccccc12 [Compound 75] | 0 | 0 | 0 | 0 | 100 | 90 | 100 | 100 | 20 | 10 | 80 | 50 | 100 | 90 | 90 | 70 | 90 | 70 | 80 | 60 | Barnyardgrass plant response rating (0 to 100 scale) [11]: 70; Barnyardgrass plant response rating [11]: 20; Ragweed plant response rating (0 to 100 scale) [12]: 100; Ragweed plant response rating [12]: 90; Ryegrass, Italian plant response rating [13]: 100; Ryegrass, Italian plant response rating (0 to 100 scale) [13]: 100; Foxtail, Giant plant response rating [14]: 70; Foxtail, Giant plant response rating (0 to 100 scale) [14]: 100; Kochia plant response rating (kochia (Kochia scoparia) [15]): 10; Kochia plant response rating (0 to 100 scale) (kochia (Kochia scoparia) [15]): 90; Pigweed plant response rating [16]: 60; Pigweed plant response rating (0 to 100 scale) [16]: 90; Barnyardgrass plant response rating [17]: 30; Barnyardgrass plant response rating (0 to 100 scale) [17]: 90; Ragweed plant response rating [18]: 80; Ragweed plant response rating (0 to 100 scale) [18]: 100 |
